Test [1] in a line: Luminescence Cell-Based Dose Retest to Confirm Inhibitors of Cancer Stem Cells. [Related pubchem assays (depositor defined):AID2717, AID2721]. In kind it is functional. Conditions: Homo sapiens.
Test [2] has as its system Vero. In words: cells. Type of test: functional, cell-based. Conditions: Chlorocebus sabaeus.
The subject of test [3] is Vero. In words: cells. Conditions: Chlorocebus sabaeus. In kind it is functional.
Test [4] relates to HEK293. Nature of the test: NOD2 signaling inhibitors in MDP-stimulated cells, cell-based, uHTS, luminescence (AID 2001). Type of test: functional. The conditions noted are these: Homo sapiens.
Test [5] relates to HEK293. In words: cells. In kind it is functional, cell-based. The conditions noted are these: Homo sapiens.
Test [6] relates to HEK293. In words: inhibition of NOD1-driven NF-kB reporter – cell-based, luminescence, uHTS, primary screen (AID 1578). In kind it is functional. The conditions noted are these: Homo sapiens.
Test [7] has as its system HEK293. Nature of the test: cells. Type of test: functional, cell-based. Conditions: Homo sapiens. This is another data set of the same source.
The target of test [8] is T1, Heat shock factor protein 1 (Mus musculus, UniProt P38532).
T1 sequence (P38532 whole entry): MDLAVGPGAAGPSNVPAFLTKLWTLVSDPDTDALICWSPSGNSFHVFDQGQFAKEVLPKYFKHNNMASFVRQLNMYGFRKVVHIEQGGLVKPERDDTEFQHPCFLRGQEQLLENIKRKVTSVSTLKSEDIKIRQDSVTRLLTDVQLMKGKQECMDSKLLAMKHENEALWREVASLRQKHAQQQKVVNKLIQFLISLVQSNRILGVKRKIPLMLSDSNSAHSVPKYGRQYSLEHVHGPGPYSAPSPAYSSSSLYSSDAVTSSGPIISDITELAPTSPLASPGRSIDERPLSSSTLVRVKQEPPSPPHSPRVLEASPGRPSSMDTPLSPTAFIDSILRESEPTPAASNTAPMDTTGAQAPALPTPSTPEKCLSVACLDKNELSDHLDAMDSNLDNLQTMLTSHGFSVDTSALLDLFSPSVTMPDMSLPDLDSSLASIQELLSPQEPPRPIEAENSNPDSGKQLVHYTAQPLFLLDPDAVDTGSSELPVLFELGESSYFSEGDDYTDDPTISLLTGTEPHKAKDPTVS
In words: enhancement of HSF1-driven luciferase signal – cell-based, NIH3T3, luminescence, dose retest, confirmation (AID 435004).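 Note: stress induced by proteasome inhibitor MG132 added 30 min after compound; luciferase reporter driven by HSF1 response element in NIH3T3 cells; actives raise luminescence as potentiators of the MG132 stress response.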 In kind it is functional.

A further test concerns HeLa. Nature of the test: ATP-based viability loss in HeLa cells – cell-based, CellTiter-Glo luminescence, cherry-pick samples, cytotoxicity control for MITF activator project, dose response (AID 540259). Type of test: functional. Conditions: Homo sapiens.
For a further test, the target named is T2, Exodeoxyribonuclease V (Escherichia coli (strain K12), UniProt P04993+P07648+P08394).
T2 sequence (P04993 whole entry): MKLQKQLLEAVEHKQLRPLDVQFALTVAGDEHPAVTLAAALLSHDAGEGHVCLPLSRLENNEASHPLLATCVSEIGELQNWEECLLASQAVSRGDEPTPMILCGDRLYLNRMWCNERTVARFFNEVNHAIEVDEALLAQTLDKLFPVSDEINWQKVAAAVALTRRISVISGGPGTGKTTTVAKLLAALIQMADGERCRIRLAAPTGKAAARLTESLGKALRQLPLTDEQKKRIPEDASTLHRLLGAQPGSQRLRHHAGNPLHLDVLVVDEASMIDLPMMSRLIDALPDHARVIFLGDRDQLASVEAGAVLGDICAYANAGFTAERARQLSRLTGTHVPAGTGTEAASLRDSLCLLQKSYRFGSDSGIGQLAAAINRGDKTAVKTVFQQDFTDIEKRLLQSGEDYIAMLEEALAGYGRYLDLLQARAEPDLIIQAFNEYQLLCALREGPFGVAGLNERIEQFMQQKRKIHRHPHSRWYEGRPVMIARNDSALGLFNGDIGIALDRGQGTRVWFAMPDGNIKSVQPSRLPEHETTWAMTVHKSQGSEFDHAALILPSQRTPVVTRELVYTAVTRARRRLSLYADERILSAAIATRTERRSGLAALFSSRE
T2 sequence (P07648 whole entry): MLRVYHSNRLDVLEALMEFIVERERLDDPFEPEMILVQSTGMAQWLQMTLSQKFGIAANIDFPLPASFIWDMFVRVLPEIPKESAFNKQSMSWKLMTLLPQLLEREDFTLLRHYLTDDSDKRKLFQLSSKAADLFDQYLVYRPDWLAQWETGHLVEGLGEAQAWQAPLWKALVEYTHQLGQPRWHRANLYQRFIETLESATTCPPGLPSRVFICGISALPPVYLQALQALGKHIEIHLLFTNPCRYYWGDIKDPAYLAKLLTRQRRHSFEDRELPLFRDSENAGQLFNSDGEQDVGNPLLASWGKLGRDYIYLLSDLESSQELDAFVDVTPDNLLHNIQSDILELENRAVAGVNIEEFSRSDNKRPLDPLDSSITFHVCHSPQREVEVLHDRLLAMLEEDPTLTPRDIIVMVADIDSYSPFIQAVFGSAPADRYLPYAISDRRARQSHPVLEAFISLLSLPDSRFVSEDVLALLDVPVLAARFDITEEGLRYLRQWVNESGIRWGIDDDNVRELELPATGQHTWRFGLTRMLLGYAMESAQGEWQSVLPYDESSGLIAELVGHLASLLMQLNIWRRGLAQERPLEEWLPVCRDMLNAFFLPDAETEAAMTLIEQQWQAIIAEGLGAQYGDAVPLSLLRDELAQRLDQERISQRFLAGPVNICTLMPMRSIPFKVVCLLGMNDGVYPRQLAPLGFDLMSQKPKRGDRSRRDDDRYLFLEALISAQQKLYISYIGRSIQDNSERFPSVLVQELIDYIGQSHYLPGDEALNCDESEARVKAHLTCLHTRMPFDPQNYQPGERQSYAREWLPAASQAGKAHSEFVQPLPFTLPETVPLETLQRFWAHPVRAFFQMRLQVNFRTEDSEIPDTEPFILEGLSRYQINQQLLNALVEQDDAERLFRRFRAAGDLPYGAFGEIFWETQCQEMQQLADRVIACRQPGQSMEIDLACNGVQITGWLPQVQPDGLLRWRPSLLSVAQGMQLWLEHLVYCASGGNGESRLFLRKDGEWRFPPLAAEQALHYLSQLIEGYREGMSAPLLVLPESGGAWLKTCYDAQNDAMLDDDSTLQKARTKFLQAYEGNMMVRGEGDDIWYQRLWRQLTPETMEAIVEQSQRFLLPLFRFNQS
T2 sequence (P08394 whole entry): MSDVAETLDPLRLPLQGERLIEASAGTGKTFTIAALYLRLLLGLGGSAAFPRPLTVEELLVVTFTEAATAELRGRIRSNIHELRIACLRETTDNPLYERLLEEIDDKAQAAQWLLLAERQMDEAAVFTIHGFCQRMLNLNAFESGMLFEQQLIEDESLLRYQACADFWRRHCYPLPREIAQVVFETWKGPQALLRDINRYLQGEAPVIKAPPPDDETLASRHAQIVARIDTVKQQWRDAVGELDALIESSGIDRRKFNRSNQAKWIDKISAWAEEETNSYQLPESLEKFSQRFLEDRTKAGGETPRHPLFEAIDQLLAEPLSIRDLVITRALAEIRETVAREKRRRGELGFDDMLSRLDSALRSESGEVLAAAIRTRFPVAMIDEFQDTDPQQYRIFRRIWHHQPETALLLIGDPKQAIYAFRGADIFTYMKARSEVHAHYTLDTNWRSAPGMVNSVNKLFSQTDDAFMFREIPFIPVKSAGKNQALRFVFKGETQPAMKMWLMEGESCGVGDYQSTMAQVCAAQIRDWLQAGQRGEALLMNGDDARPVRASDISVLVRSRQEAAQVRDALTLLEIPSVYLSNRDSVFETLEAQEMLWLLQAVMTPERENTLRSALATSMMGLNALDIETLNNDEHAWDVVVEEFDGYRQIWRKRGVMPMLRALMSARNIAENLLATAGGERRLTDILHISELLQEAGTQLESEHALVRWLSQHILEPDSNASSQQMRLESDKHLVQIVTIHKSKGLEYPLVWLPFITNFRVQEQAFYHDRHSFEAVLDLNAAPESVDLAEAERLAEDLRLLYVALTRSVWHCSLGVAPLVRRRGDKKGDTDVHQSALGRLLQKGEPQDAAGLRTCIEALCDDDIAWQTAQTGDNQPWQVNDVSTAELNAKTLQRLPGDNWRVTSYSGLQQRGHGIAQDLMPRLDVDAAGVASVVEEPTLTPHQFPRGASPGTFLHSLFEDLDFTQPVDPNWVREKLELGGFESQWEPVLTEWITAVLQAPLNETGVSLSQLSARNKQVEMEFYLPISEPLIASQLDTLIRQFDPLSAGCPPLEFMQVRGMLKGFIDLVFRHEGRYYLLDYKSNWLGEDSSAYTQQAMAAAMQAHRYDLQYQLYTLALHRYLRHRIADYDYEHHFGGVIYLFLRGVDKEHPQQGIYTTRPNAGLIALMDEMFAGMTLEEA
Nature of the test: RecBCD inhibition via phage-restricted bacterial growth – absorbance, V66 E. coli, mutant T4 phage, counter-screen for AddAB inhibitor project, dose response (AID 492957). Type of test: functional, cell-based, Escherichia coli str. K-12 substr. MG1655.

A short description of test [9]: Counterscreen for AddAB inhibitors: absorbance-based bacterial cell-based high throughput dose response assay for inhibitors of bacterial viability. [Related pubchem assays (depositor defined):AID435030, AID449728, AID449731, AID488942, AID488955, AID488956]. Type of test: functional.

Activity calls are given as the source filed them.

As to `C[C@]12CC[C@H](O)C[C@H]1CC[C@@H]1[C@@H]2CC[C@]2(C)[C@@H](C3=CC(=O)OC3)[C@@H](O)C[C@]12O` [GITOXIGENIN], the AC50 in test [1] is 2.58 µM (active). The IC50 in the test on Vero [2] was > 12.5 µM (active). For the same compound, the CC50 in the test with Vero [3] is 6.88 µM (active).
In the case of `C=C(C(=O)c1ccccc1)C(CC(=O)c1ccccc1)c1ccccc1` (stereo unspecified), the IC50 was 4.04 µM (active) in the test with HEK293 [4], 1.42 µM (active) in the test with HEK293 [5], 21.4 µM (active) in the test with Vero [2] and > 20 µM (inactive) in the test with HEK293 [7]. Besides, the AC50 in test [1] is 2.07 µM (active). The CC50 with Vero [3] is 21 µM (active). The EC50 was 8.67 µM (active) with HEK293 [6] and 7.91 µM (active) in [8].
Regarding `CC1(C)CN=c2s/c(=C\c3ccc(Cl)cc3)c(=O)n2C1`, the AC50 with HeLa was 277 µM (active).
Regarding `COc1ccc(-c2nn(-c3ccccc3)cc2C(=O)NC(=S)NNC(=O)c2ccncc2)cc1`, the IC50 in the test on Vero [2] was 16.6 µM (active). Moreover, the CC50 in the test on Vero [3] is 16.4 µM (active).
Regarding `O=C1CCC(=O)N(O)CCCCCNC(=O)CCC(=O)N(O)CCCCCNC(=O)CCC(=O)N(O)CCCCCN1` [NOCARDAMINE], the IC50 (at Exodeoxyribonuclease V; in [9]) was > 119 µM (inactive) throughout.
